{
  "source": "patent US20240350575A1",
  "about": "“PLANT EXTRACT FOR ALLEVATING PULMONARY FIBROSIS, AND PREPARATION METHOD AND USE THEREOF” (Guangdong GreenTech Lemon Innovations Co., Ltd., priority 2023, published 2024)",
  "format_in_all_cases": "in vivo, SD rats",
  "key": {"[1]": {"test_system": "rat models of pulmonary fibrosis", "test": "Body weight in bleomycin-induced rat models of pulmonary fibrosis", "from_the_text": "(§1) The present experimental example explored the influence of the plant extract solution prepared in Embodiments 1-3 on the body weight and lung coefficient of rats. The method was as follows:\n(§2) 80 healthy SD rats including half males and half females with a body weight of 230 g±10 g were selected and divided into a blank group, a model group, embodiment group 1, embodiment group 2, embodiment group 3, comparative example group 1, comparative example group 2 and a positive control group, each group consisting of 10 rats. After the rats in each group were raised regularly for one week, each rat was intraperitoneally injected with 4% chloral hydrate at an injection dose of 10 ml/kg. The anesthetized rats were fixed in a supine position, and the rat necks were subjected to hair removal, disinfected with iodine alcohol, and longitudinally cut to expose tracheas. Except for the blank group, the rats in each group were pierced with an injector by 1 cm toward the heart through a gap between two tracheal cartilage rings, and after resistance-free withdrawal, bleomycin was injected into the trachea at a dose of 5 mg/kg. The blank group was injected with an equal volume of normal saline. Immediately after injection, the rats were rotated upright for 5 min to fully distribute the medicament in the lungs. Various layers of tissues were sutured, and local alcohol disinfection was performed. 24 hours after modeling, the rats in the blank group and the model group were intragastrically administered with normal saline at a dose of 5 mL/kg every day, the rats in the positive control group were intragastrically administered with prednisone acetate at a dose of 5 mL/kg every day, and the rats in embodiment groups 1-3 and comparative example groups 1-2 were intragastrically administered with corresponding plant extract at a dose of 5 mL/kg continuously for 28 d. During this period, the rats in each group were raised according to a conventional method.\n(1) Body weight: weighed the rats in each group on the day of intragastric administration, and weighed the rats in each group every 7 d."}, "[2]": {"test_system": "rat models of pulmonary fibrosis", "test": "Lung coefficient in bleomycin-induced rat models of pulmonary fibrosis", "details": "wet lung weight/body weight x100%, bleomycin rats, intragastric 5 mL/kg daily", "from_the_text": "as §1\nas §2, with “24 hours after modeling, the rats in the blank group and the model group were intragastrically administered with normal saline at a dose of 5 mL/kg every day, the rats in the positive control group were intragastrically administered with prednisone acetate at a dose of 5 mL/kg every day, and the rats in embodiment groups 1-3 and comparative example groups 1-2 were intragastrically administered with corresponding plant extract at a dose of 5 mL/kg continuously for 28 d. During this period, the rats in each group were raised according to a conventional method.” left out"}, "[3]": {"test_system": "rat models of pulmonary fibrosis", "test": "Hydroxyproline content in lung tissues of rat models of pulmonary fibrosis", "details": "lung tissue, bleomycin rats, after intragastric administration 5 mL/kg daily for 28 d", "experimental": "as §2, with “24 hours after modeling, the rats in the blank group and the model group were intragastrically administered with normal saline at a dose of 5 mL/kg every day, the rats in the positive control group were intragastrically administered with prednisone acetate at a dose of 5 mL/kg every day, and the rats in embodiment groups 1-3 and comparative example groups 1-2 were intragastrically administered with corresponding plant extract at a dose of 5 mL/kg continuously for 28 d. During this period, the rats in each group were raised according to a conventional method.” left out"}},
  "data": [
    {"smiles": "CC(=O)OCC(=O)[C@@]1(O)CC[C@H]2[C@@H]3CCC4=CC(=O)C=C[C@]4(C)[C@H]3C(=O)C[C@@]21C", "note": "[Positive control group, prednisone acetate]", "values": [
      {"measurement": "Initial weight", "setting": "[1]; baseline, day of first intragastric administration, 24 h after bleomycin 5 mg/kg intratracheal", "value": 228.1, "unit": "g"},
      {"measurement": "Weight on the 7th day", "setting": "[1]; bleomycin rats, intragastric 5 mL/kg daily, day 7", "value": 253.2, "unit": "g"},
      {"measurement": "Weight on the 14th day", "setting": "[1]; bleomycin rats, intragastric 5 mL/kg daily, day 14", "value": 260.7, "unit": "g"},
      {"measurement": "Weight on the 21st day", "setting": "[1]; bleomycin rats, intragastric 5 mL/kg daily, day 21", "value": 267.6, "unit": "g"},
      {"measurement": "Weight on the 28th day", "setting": "[1]; bleomycin rats, intragastric 5 mL/kg daily, day 28", "value": 273.2, "unit": "g"},
      {"measurement": "Lung coefficient on the 14th day", "setting": "[2]; day 14", "value": 0.568, "unit": "%"},
      {"measurement": "Lung coefficient on the 28th day", "setting": "[2]; day 28", "value": 0.594, "unit": "%"},
      {"measurement": "Hydroxyproline content", "setting": "[3]", "value": 0.847, "unit": "µg/mg"}
    ]}
  ]
}
